In assay [1] the test system is Gram-negative bacteria in patient duodenum aspirate. Nature of the assay: Culture of patient duodenum aspirate on MacConkey agar aerobically. The format is cell-based. Conditions: for MacConkey agar (CFU/mL), Before Rifaximin: With DTT; for MacConkey agar (CFU/mL), Rifaximin treatment: aerobically. From the text:
(§1) Culture: blood agar and MacConkey aerobically, and blood agar anaerobically. […] Culture: MacConkey aerobically and blood agar anaerobically. […] Culture: MacConkey aerobically and blood agar anaerobically. […] Culture: MacConkey aerobically and blood agar anaerobically. […]

Assay [2] has as its system anaerobes in patient duodenum aspirate. Nature of the assay: Culture of patient duodenum aspirate on blood agar. The format is cell-based. Conditions: for Blood agar (CFU/mL), Before Rifaximin: With DTT.
Description: as §1

The mark [3] stands for this setting: Experiment 1, rifaximin dose 0.01 g/mL.

The structures appear in SMILES notation.

On to `O[C@H](CS)[C@H](O)CS` (racemic) [DTT, dithiothreitol], for which the “MacConkey agar (CFU/mL), Before Rifaximin” value in assay [1] (Experiment 1) stood at 4800 CFU/mL; in assay [1] (Experiment 2) it was 338000 CFU/mL; in assay [1] (Experiment 3), 20 CFU/mL; in assay [1] (Experiment 4), 0 CFU/mL. Moreover, the “Blood agar (CFU/mL), Before Rifaximin” value in assay [2] (Experiment 1) is given as 72000 CFU/mL; in assay [2] (Experiment 2), “too high”; in assay [2] (Experiment 3), 60000 CFU/mL; in assay [2] (Experiment 4), 1600000 CFU/mL.
Take `CO[C@H]1/C=C/O[C@@]2(C)Oc3c(C)c(O)c4c(O)c(c5c(nc6cc(C)ccn65)c4c3C2=O)NC(=O)/C(C)=C\C=C\[C@H](C)[C@H](O)[C@@H](C)[C@@H](O)[C@@H](C)[C@H](OC(C)=O)[C@@H]1C` [Rifaximin, rifaximin]: the “MacConkey agar (CFU/mL), Rifaximin treatment” value worked out at 4000 CFU/mL in assay [1] (setting [3]); 343000 CFU/mL in assay [1] (Experiment 2, rifaximin dose 0.1 g/mL); 40 CFU/mL in assay [1] (Experiment 3, rifaximin dose 0.01 g/mL); 0 CFU/mL in assay [1] (Experiment 4, rifaximin dose 0.1 g/mL). For the same compound, the “Blood agar (CFU/mL), Rifaximin treatment” value is given as 6000 CFU/mL in assay [2] (setting [3]); “too high” in assay [2] (Experiment 2, rifaximin dose 0.1 g/mL, anaerobically); 800 CFU/mL in assay [2] (Experiment 3, rifaximin dose 0.01 g/mL, anaerobically); 16000 CFU/mL in assay [2] (Experiment 4, rifaximin dose 0.1 g/mL, anaerobically).

These data come from patent US12642793B2, “Compositions and methods to treat gastrointestinal diseases and disorders” (CEDARS-SINAI MEDICAL CENTER, priority 2019, dated 2026).
